Data published in ChEMBL document CHEMBL4387762, “Multicomponent synthesis of α-acylamino and α-acyloxy amide derivatives of desmycosin and their activity against gram-negative bacteria” (2019).
Converted amounts (≈) assume the structure as drawn.

Columns and labels:
Format in all cases: functional
Aliivibrio fischeri [1] = assay: Antimicrobial activity against Aliivibrio fischeri DSM507 assessed as growth inhibition at 1 uM incubated for 24 hrs by luminescence based assay relative to control; conditions: DSM507, 24 h, read-out: GI
Aliivibrio fischeri [2] = assay: Antimicrobial activity against Aliivibrio fischeri DSM507 assessed as growth inhibition at 0.1 uM incubated for 24 hrs by luminescence based assay relative to control; conditions: DSM507, 24 h, read-out: GI
Aliivibrio fischeri [3] = assay: Antimicrobial activity against Aliivibrio fischeri DSM507 assessed as growth inhibition incubated for 24 hrs by luminescence based assay; conditions: DSM507, 24 h

Question: With `CC[C@H]1OC(=O)C[C@@H](O)[C@H](C)[C@@H](O[C@@H]2O[C@H](C)[C@@H](O)[C@H](N(C)C)[C@H]2O)[C@@H](C[C@@H](C(=O)NC(C)(C)C)N(C)C(C)=O)C[C@@H](C)C(=O)/C=C/C(C)=C/[C@@H]1CO[C@H]1O[C@@H](C)[C@H](O)[C@H](OC)[C@@H]1OC` as the compound, how does the inhibition of growth at 1 µM (Aliivibrio fischeri [1]) read?
Answer: 11%

Question: And the inhibition of growth at 0.1 µM (Aliivibrio fischeri [2])?
Answer: 6%

Question: Which results are given for `CC[C@H]1OC(=O)C[C@@H](O)[C@H](C)[C@@H](O[C@@H]2O[C@H](C)[C@@H](O)[C@H](N(C)C)[C@H]2O)[C@@H](C[C@H](C(=O)NC(C)(C)C)N(C)C(C)=O)C[C@@H](C)C(=O)/C=C/C(C)=C/[C@@H]1CO[C@H]1O[C@@H](C)[C@H](O)[C@H](OC)[C@@H]1OC`?
Answer: inhibition of growth at 1 µM (Aliivibrio fischeri [1]): 64%; inhibition of growth at 0.1 µM (Aliivibrio fischeri [2]): 12%

Question: How did the inhibition of growth at 1 µM (Aliivibrio fischeri [1]) turn out when `CC[C@@H](C)CN(C(=O)c1ccccc1)C(C[C@H]1C[C@@H](C)C(=O)/C=C/C(C)=C/[C@H](CO[C@H]2O[C@@H](C)[C@H](O)[C@H](OC)[C@@H]2OC)[C@@H](CC)OC(=O)C[C@@H](O)[C@H](C)[C@H]1O[C@@H]1O[C@H](C)[C@@H](O)[C@H](N(C)C)[C@H]1O)C(=O)NC(C)(C)C` (some centres undefined) was run?
Answer: 52%

Question: What about the inhibition of growth at 0.1 µM (Aliivibrio fischeri [2]) of the same compound?
Answer: 25%

Question: `CCCC(=O)OC(C[C@H]1C[C@@H](C)C(=O)/C=C/C(C)=C/[C@H](CO[C@H]2O[C@@H](C)[C@H](O)[C@H](OC)[C@@H]2OC)[C@@H](CC)OC(=O)C[C@@H](O)[C@H](C)[C@H]1O[C@@H]1O[C@H](C)[C@@H](O)[C@H](N(C)C)[C@H]1O)C(=O)NC(C)(C)C` (some centres undefined) was tested. Which inhibition of growth at 1 µM (Aliivibrio fischeri [1]) did it give?
Answer: 90%

Question: And the inhibition of growth at 0.1 µM (Aliivibrio fischeri [2])?
Answer: 58%

Question: `CC[C@H]1OC(=O)C[C@@H](O)[C@H](C)[C@@H](O[C@@H]2O[C@H](C)[C@@H](O)[C@H](N(C)C)[C@H]2O)[C@@H](CC=O)C[C@@H](C)C(=O)/C=C/C(C)=C/[C@@H]1CO[C@H]1O[C@@H](C)[C@H](O)[C@H](OC)[C@@H]1OC` was tested. Which inhibition of growth at 1 µM (Aliivibrio fischeri [1]) did it give?
Answer: 84%

Question: And the MIC (Aliivibrio fischeri [3])?
Answer: 2 to 4 µM (≈ 1.54 to 3.09 µg/mL)

Question: What about the inhibition of growth at 0.1 µM (Aliivibrio fischeri [2]) of the same compound?
Answer: 57%

Question: For `CCCN(C(=O)c1ccccc1)C(C[C@H]1C[C@@H](C)C(=O)/C=C/C(C)=C/[C@H](CO[C@H]2O[C@@H](C)[C@H](O)[C@H](OC)[C@@H]2OC)[C@@H](CC)OC(=O)C[C@@H](O)[C@H](C)[C@H]1O[C@@H]1O[C@H](C)[C@@H](O)[C@H](N(C)C)[C@H]1O)C(=O)NC(C)(C)C` (mixture of isomers), which inhibition of growth at 1 µM (Aliivibrio fischeri [1]) is on record?
Answer: 41%

Question: And the inhibition of growth at 0.1 µM (Aliivibrio fischeri [2])?
Answer: 16%

Question: Which inhibition of growth at 1 µM (Aliivibrio fischeri [1]) does the source give for `CC[C@H]1OC(=O)C[C@@H](O)[C@H](C)[C@@H](O[C@@H]2O[C@H](C)[C@@H](O)[C@H](N(C)C)[C@H]2O)[C@@H](CC(C(=O)NC(C)(C)C)N(C(=O)c2ccccc2)C(C)C)C[C@@H](C)C(=O)/C=C/C(C)=C/[C@@H]1CO[C@H]1O[C@@H](C)[C@H](O)[C@H](OC)[C@@H]1OC` (mixture of isomers) here?
Answer: 79%

Question: What about the inhibition of growth at 0.1 µM (Aliivibrio fischeri [2]) of the same compound?
Answer: 54%

Question: Which results are given for `CCCC(=O)N(C)C(C[C@H]1C[C@@H](C)C(=O)/C=C/C(C)=C/[C@H](CO[C@H]2O[C@@H](C)[C@H](O)[C@H](OC)[C@@H]2OC)[C@@H](CC)OC(=O)C[C@@H](O)[C@H](C)[C@H]1O[C@@H]1O[C@H](C)[C@@H](O)[C@H](N(C)C)[C@H]1O)C(=O)NC(C)(C)C` (mixture of isomers)?
Answer: inhibition of growth at 1 µM (Aliivibrio fischeri [1]): 73%; inhibition of growth at 0.1 µM (Aliivibrio fischeri [2]): 26%

Question: How did the inhibition of growth at 1 µM (Aliivibrio fischeri [1]) turn out when `CC[C@H]1OC(=O)C[C@@H](O)[C@H](C)[C@@H](O[C@@H]2O[C@H](C)[C@@H](O)[C@H](N(C)C)[C@H]2O)[C@@H](CC(C(=O)NC(C)(C)C)N(CCCCN=[N+]=[N-])C(=O)c2ccccc2)C[C@@H](C)C(=O)/C=C/C(C)=C/[C@@H]1CO[C@H]1O[C@@H](C)[C@H](O)[C@H](OC)[C@@H]1OC` (mixture of isomers) was run?
Answer: 64%

Question: And the inhibition of growth at 0.1 µM (Aliivibrio fischeri [2])?
Answer: 46%

Question: For `CC[C@H]1OC(=O)C[C@@H](O)[C@H](C)[C@@H](O[C@@H]2O[C@H](C)[C@@H](O)[C@H](N(C)C)[C@H]2O)[C@@H](CC(C(=O)NC2CCCCC2)N(C(=O)c2ccccc2)C(C)C)C[C@@H](C)C(=O)/C=C/C(C)=C/[C@@H]1CO[C@H]1O[C@@H](C)[C@H](O)[C@H](OC)[C@@H]1OC` (mixture of isomers), which inhibition of growth at 1 µM (Aliivibrio fischeri [1]) is on record?
Answer: 44%

Question: What about the inhibition of growth at 0.1 µM (Aliivibrio fischeri [2]) of the same compound?
Answer: 21%

Question: `CCC(=O)N(C(C)C)C(C[C@H]1C[C@@H](C)C(=O)/C=C/C(C)=C/[C@H](CO[C@H]2O[C@@H](C)[C@H](O)[C@H](OC)[C@@H]2OC)[C@@H](CC)OC(=O)C[C@@H](O)[C@H](C)[C@H]1O[C@@H]1O[C@H](C)[C@@H](O)[C@H](N(C)C)[C@H]1O)C(=O)NC(C)(C)C` (mixture of isomers) was tested. Which inhibition of growth at 1 µM (Aliivibrio fischeri [1]) did it give?
Answer: 71%

Question: What about the inhibition of growth at 0.1 µM (Aliivibrio fischeri [2]) of the same compound?
Answer: 38%

Question: How did the inhibition of growth at 1 µM (Aliivibrio fischeri [1]) turn out when `CC[C@H]1OC(=O)C[C@@H](O)[C@H](C)[C@@H](O[C@@H]2O[C@H](C)[C@@H](O)[C@H](N(C)C)[C@H]2O)[C@@H](CC(C(=O)NC(C)(C)C)N(CCCNC(=O)OCc2ccccc2)C(=O)c2ccccc2)C[C@@H](C)C(=O)/C=C/C(C)=C/[C@@H]1CO[C@H]1O[C@@H](C)[C@H](O)[C@H](OC)[C@@H]1OC` (mixture of isomers) was run?
Answer: 64%

Question: And the inhibition of growth at 0.1 µM (Aliivibrio fischeri [2])?
Answer: 47%

Question: With `CC[C@H]1OC(=O)C[C@@H](O)[C@H](C)[C@@H](O[C@@H]2O[C@H](C)[C@@H](O)[C@H](N(C)C)[C@H]2O)[C@@H](CC(OC(=O)c2ccccc2)C(=O)NC(C)(C)C)C[C@@H](C)C(=O)/C=C/C(C)=C/[C@@H]1CO[C@H]1O[C@@H](C)[C@H](O)[C@H](OC)[C@@H]1OC` (mixture of isomers) as the compound, how does the inhibition of growth at 1 µM (Aliivibrio fischeri [1]) read?
Answer: 52%

Question: What about the inhibition of growth at 0.1 µM (Aliivibrio fischeri [2]) of the same compound?
Answer: 18%

Question: With `CC[C@H]1OC(=O)C[C@@H](O)[C@H](C)[C@@H](O[C@@H]2O[C@H](C)[C@@H](O)[C@H](N(C)C)[C@H]2O)[C@@H](CC(C(=O)NC(C)(C)C)N(C(=O)c2ccccc2)c2ccccc2)C[C@@H](C)C(=O)/C=C/C(C)=C/[C@@H]1CO[C@H]1O[C@@H](C)[C@H](O)[C@H](OC)[C@@H]1OC` (mixture of isomers) as the compound, how does the inhibition of growth at 1 µM (Aliivibrio fischeri [1]) read?
Answer: 36%

Question: What about the inhibition of growth at 0.1 µM (Aliivibrio fischeri [2]) of the same compound?
Answer: 22%

Question: What does the source list for `CC[C@H]1OC(=O)C[C@@H](O)[C@H](C)[C@@H](O[C@@H]2O[C@H](C)[C@@H](O)[C@H](N(C)C)[C@H]2O)[C@@H](CC(C(=O)NC(C)(C)C)N(CC)C(=O)c2ccccc2)C[C@@H](C)C(=O)/C=C/C(C)=C/[C@@H]1CO[C@H]1O[C@@H](C)[C@H](O)[C@H](OC)[C@@H]1OC` (mixture of isomers)?
Answer: inhibition of growth at 1 µM (Aliivibrio fischeri [1]): 20%; inhibition of growth at 0.1 µM (Aliivibrio fischeri [2]): 11%

Question: Which results are given for `CC[C@H]1OC(=O)C[C@@H](O)[C@H](C)[C@@H](O[C@@H]2O[C@H](C)[C@@H](O)[C@H](N(C)C)[C@H]2O)[C@@H](CC(C(=O)NC(C)(C)C)N(CCCCN)C(=O)c2ccccc2)C[C@@H](C)C(=O)/C=C/C(C)=C/[C@@H]1CO[C@H]1O[C@@H](C)[C@H](O)[C@H](OC)[C@@H]1OC` (mixture of isomers)?
Answer: inhibition of growth at 1 µM (Aliivibrio fischeri [1]): 36%; inhibition of growth at 0.1 µM (Aliivibrio fischeri [2]): 6%

Question: `CC[C@H]1OC(=O)C[C@@H](O)[C@H](C)[C@@H](O[C@@H]2O[C@H](C)[C@@H](O)[C@H](N(C)C)[C@H]2O)[C@@H](CC(C(=O)NC(C)(C)C)N(CCNC(=O)OC(C)(C)C)C(=O)c2ccccc2)C[C@@H](C)C(=O)/C=C/C(C)=C/[C@@H]1CO[C@H]1O[C@@H](C)[C@H](O)[C@H](OC)[C@@H]1OC` (mixture of isomers) was tested. Which inhibition of growth at 1 µM (Aliivibrio fischeri [1]) did it give?
Answer: 56%

Question: What about the inhibition of growth at 0.1 µM (Aliivibrio fischeri [2]) of the same compound?
Answer: 34%

Question: With `CCCCNC(=O)C(C[C@H]1C[C@@H](C)C(=O)/C=C/C(C)=C/[C@H](CO[C@H]2O[C@@H](C)[C@H](O)[C@H](OC)[C@@H]2OC)[C@@H](CC)OC(=O)C[C@@H](O)[C@H](C)[C@H]1O[C@@H]1O[C@H](C)[C@@H](O)[C@H](N(C)C)[C@H]1O)N(C)C(=O)CCC` (mixture of isomers) as the compound, how does the inhibition of growth at 1 µM (Aliivibrio fischeri [1]) read?
Answer: 62%

Question: What about the inhibition of growth at 0.1 µM (Aliivibrio fischeri [2]) of the same compound?
Answer: 15%

Question: How did the inhibition of growth at 1 µM (Aliivibrio fischeri [1]) turn out when `CCCCNC(=O)C(C[C@H]1C[C@@H](C)C(=O)/C=C/C(C)=C/[C@H](CO[C@H]2O[C@@H](C)[C@H](O)[C@H](OC)[C@@H]2OC)[C@@H](CC)OC(=O)C[C@@H](O)[C@H](C)[C@H]1O[C@@H]1O[C@H](C)[C@@H](O)[C@H](N(C)C)[C@H]1O)N(C(=O)c1ccccc1)C(C)C` (mixture of isomers) was run?
Answer: 57%

Question: What about the inhibition of growth at 0.1 µM (Aliivibrio fischeri [2]) of the same compound?
Answer: 31%

Question: For `CCCC(=O)N(C(C)C)C(C[C@H]1C[C@@H](C)C(=O)/C=C/C(C)=C/[C@H](CO[C@H]2O[C@@H](C)[C@H](O)[C@H](OC)[C@@H]2OC)[C@@H](CC)OC(=O)C[C@@H](O)[C@H](C)[C@H]1O[C@@H]1O[C@H](C)[C@@H](O)[C@H](N(C)C)[C@H]1O)C(=O)NC(C)(C)C` (mixture of isomers), which inhibition of growth at 1 µM (Aliivibrio fischeri [1]) is on record?
Answer: 83%

Question: What about the inhibition of growth at 0.1 µM (Aliivibrio fischeri [2]) of the same compound?
Answer: 43%

Question: Which results are given for `CC[C@H]1OC(=O)C[C@@H](O)[C@H](C)[C@@H](O[C@@H]2O[C@H](C)[C@@H](O)[C@H](N(C)C)[C@H]2O)[C@@H](CC(C(=O)NC(C)(C)C)N(C)C(=O)c2ccccc2)C[C@@H](C)C(=O)/C=C/C(C)=C/[C@@H]1CO[C@H]1O[C@@H](C)[C@H](O)[C@H](OC)[C@@H]1OC` (mixture of isomers)?
Answer: inhibition of growth at 1 µM (Aliivibrio fischeri [1]): 99%; inhibition of growth at 0.1 µM (Aliivibrio fischeri [2]): 69%

Question: With `CC[C@H]1OC(=O)C[C@@H](O)[C@H](C)[C@@H](O[C@@H]2O[C@H](C)[C@@H](O)[C@H](N(C)C)[C@H]2O)[C@@H](CC(C(=O)NC(C)(C)C)N(C)C(=O)c2ccccc2)C[C@@H](C)C(=O)/C=C/C(C)=C/[C@@H]1CO[C@H]1O[C@@H](C)[C@H](O)[C@H](OC)[C@@H]1OC` (single isomer, unassigned) as the compound, how does the MIC (Aliivibrio fischeri [3]) read?
Answer: 2 to 4 µM (≈ 1.98 to 3.96 µg/mL)
